Series [1] deals with mitochondria of HepG2 human hepatoma cells. Nature of the series: Mitochondrial toxicity in HepG2 cells (galactose medium). Format: cell-based. To be noted: HepG2, 48 h. The method, then: (§1) The toxicities of compounds on cell and mitochondria were assessed to estimate their half-maximal cytotoxic concentrations (CC50) and half-maximal mitotoxic concentrations (MC50), respectively. HepG2 human hepatoma cells were seeded into wells of a 96-well plate at a density of 5.5 × 10^4 cells per well in 80 µl of Dulbecco’s modified eagle medium (DMEM; with GlutaMax™ cat. no. 10566016 or 4 mM L-glutamine cat. no. 11966025; Thermo Fisher Scientific), supplemented with 25 mM D-glucose (cytotoxicity) or D-galactose (mitotoxicity), 10% (v/v) inactivated foetal bovine serum (iFBS), 100 IU/ml of penicillin, 100 μg/ml of streptomycin and 0.25 μg/ml of amphotericin B (designated DMEM*). Cells were allowed to adhere for 16 h at 37°C and 5% (v/v) CO2 at > 90% relative humidity, then, incubated for 48 h with individual, serially-diluted compounds (two-fold serial dilution in DMEM*; […]) in a final volume of 100 µl. For the assessment of toxicity on mitochondria, cells were starved of serum (DMEM* without iFBS) for 4 h prior to the 48 h-incubation with compounds ([Swiss and Will, 2011]; [Kamalian et al., 2015]). Two positive control compounds, doxorubicin (cytotoxic control) and M-666 (mitotoxic control) were each added to three individual wells in each 96-well plate at a single concentration of 10 µM. DMEM* + 0.25% (v/v) DMSO was added to 12 wells in each plate as negative controls. Monepantel and moxidectin were also serially diluted — prepared in the same manner as test compounds — and used as (“non-toxic”) reference compounds. After 48 h of incubation, cell viability was determined by the crystal violet staining method ([Śliwka et al., 2016]). The absorbance (595 nm) of treated cells was normalised with reference to the negative control (100% viability). To determine the CC50 and MC50 values, compound concentrations were log10-transformed, baseline-corrected using a respective positive control (doxorubicin or M-666) and fitted using a variable slope four-parameter equation with a least squares (ordinary) fit model using GraphPad Prism software (v.9.1.2). Compounds and controls were tested in triplicate.

The subject of the next series is eggs of H. contortus. Briefly: Egg hatch assay. Format: cell-based. To be noted: Haemonchus contortus, 48 h; read-out: Egg hatch inhibition (IC50 in µM). How it is done:
Compounds were also assessed for their effect on the hatching of eggs of H. contortus in vitro. To do this, eggs were isolated from the faeces from sheep with patent (30 day-) H. contortus infection by sucrose flotation ([Mes et al., 2007]). Eggs were suspended in H2O at a concentration of one egg per µl. The eggs were dispensed into wells (in triplicate; 100 eggs per well) and incubated with two-fold serial dilutions (9 points from 50 μM to 0.2 µM in H2O) of individual test or control compounds for 48 h at 27°C and >90% relative humidity; wells with no compound were also included. The numbers (percentages) of eggs from which first-stage larvae (L1s) hatched were counted using a light microscope (M80, Leica) at a 40-times magnification. With reference to positive-control compounds (i.e., monepantel and moxidectin), IC50 values of compounds were calculated.

Series [2] deals with H. contortus xL3s. Briefly: Dose-response evaluation, xL3 motility. Format: cell-based. To be noted: Haemonchus contortus, 168 h, analog series; read-out: xL3 motility reduction (IC50 in µM). The method, then:
(§2) These evaluations were carried out to estimate the half-maximal inhibitory concentrations (IC50 values) for hit compounds against H. contortus xL3s. With reference to the two positive-control compounds (monepantel and moxidectin), IC50 values for compounds were estimated ([Preston et al., 2015]; [Taki et al., 2021a]) using two-fold serial dilution (in LB*; 9 points from 50 μM to 0.2 µM) in 96-well plates (cat. no. 3596; Corning) with larvae at a density of 300 H. contortus xL3s in 100 µl per well. Plates containing H. contortus xL3s were incubated at 38°C, 10% (v/v) CO2 and >90% relative humidity.
(§3) Compound concentrations were log10-transformed and fitted using a variable slope four-parameter equation, constraining the highest value to 100% employing a least squares (ordinary) fit model using GraphPad Prism software (v.9.1.2). Compounds were tested by three independent experiments in triplicate. A one-way analysis of variance (ANOVA) with a Tukey’s multiple comparison test or an unpaired t-test was used to establish statistically significant differences in larval motility or development.

For series [3], the system named is H. contortus fourth-stage larvae (L4s) development. Briefly: Dose-response evaluation, L4 development. Format: cell-based, Haemonchus contortus. The note with it: Haemonchus contortus; 168 h, analog series; read-out: L4 development inhibition (IC50 in µM). The method, then:
as §2
as §3, with “The motility of H. contortus xL3s and L4 development were measured following 168 h of incubation with compound ([Taki et al., 2021a]). Compound concentrations” for “Compound concentrations”

The nature of series [4]: Cellular toxicity in HepG2 cells (crystal violet). The series is classed as cell-based, human. The note with it: human, HepG2 human hepatoma cells; HepG2, 48 h; read-out: Cytotoxicity (48 h) CC50. The method, then: as §1
The test system of series [5] is H. contortus xL3s. Briefly: Cell lethality in xL3s (Sytox Green staining). The series is classed as cell-based, Haemonchus contortus. How it is done:
Fluorescence staining was employed to assess the ability of UMW-868 to reduce the viability of H. contortus. The xL3s were dispensed in 96-well plates at a density of 300 xL3 per well, and incubated with compounds UMW-868 or A-3155, non-active analogs of UMW-868, at 50 μM at 38°C, 10% (v/v) CO2 and >90% relative humidity. After 90 h of incubation, H. contortus xL3s were stained with Sytox Green nucleic acid stain (Thermo Fisher Scientific) at the final concentration of 1 µM in LB* in the same 96-well plates and incubated for 1 h at 38°C and 10% (v/v) CO2 with >90% relative humidity. Following the incubation, the viability of larvae was evaluated by measuring the relative fluorescent units (RFU) of xL3s using an Omega FLUOstar microplate reader (BMG Labtech), with excitation and emission wavelengths set at 485 nm and 520 nm, respectively. The 96-well plates containing the stained larvae were returned to the incubator for further 78 h; after a total of 168 h of compound exposure, the stained larvae were examined under an inverted fluorescence microscope (DM IL, Leica) equipped with a green fluorescent protein filter (470/500/525 […]; Leica), and imaged using Leica Application Suite software (Leica).

“Also recorded” adds a separate entry of the source.

`CCCc1ccc(-c2nc(-c3ccccc3)no2)cc1` [Compound A-3126]: the “Mitotoxicity (48 h) MC50” value in series [1] was over 50.0 µM. The IC50 (commonly the concentration that gives 50% inhibition) turned out to be 13.1 µM in the series with eggs of H. contortus, 12.1 µM with H. contortus xL3s [2] and 50 µM in series [3]. In addition, the CC50 (as a rule, the concentration that lowers cell viability or growth by half) at 48 h in series [4] was over 50 µM.
For the molecule `NC(=O)c1ccc(-c2nc(-c3cccs3)no2)cc1` [Compound A-3155], in the series with H. contortus xL3s [5] (90 h), the “lethality / viability of xL3s (in words)” value is given as “remained viable; also recorded: non-lethal”. Moreover, the “dead cells detected microscopically in xL3s (Sytox Green)” value in the series on H. contortus xL3s [5] (168 h of exposure) is reported as “no dead cells were detected”.
`CCCc1ccc(-c2nc(-c3ccc(OC)cc3)no2)cc1` [Compound A-6318, 3-(4-Methoxyphenyl)-5-(4-propylphenyl)-1,2,4-oxadiazole]: the “Mitotoxicity (48 h) MC50” value in series [1] stood at 48.2 µM. The IC50 was determined as 38 µM in the series on eggs of H. contortus, 1.4 µM with H. contortus xL3s [2] and 1.6 µM in series [3]. The CC50 at 48 h in series [4] was over 50 µM.
In the case of `CCCc1ccc(-c2nc(-c3ccc(C(F)(F)F)cc3)no2)cc1` [Compound A-6501], the “Mitotoxicity (48 h) MC50” value in series [1] was over 50.0 µM. For the same molecule, the IC50 is over 50 µM with eggs of H. contortus, 1.6 µM in the series with H. contortus xL3s [2] and 6.3 µM in series [3]. The CC50 at 48 h in series [4] was over 50 µM.
`CCOc1ccc(-c2nc(-c3cccs3)no2)cc1` [Compound A-3134]: the “Mitotoxicity (48 h) MC50” value in series [1] is over 50.0 µM. For the same molecule, the IC50 in the series on eggs of H. contortus was over 50 µM; with H. contortus xL3s [2], 7.8 µM; in series [3], over 50 µM. Besides, the CC50 at 48 h in series [4] was over 50 µM.

For the origin of these results see publication PMC9616048, “Thermal proteome profiling reveals Haemonchus orphan protein HCO_011565 as a target of the nematocidal small molecule UMW-868” (Frontiers in Pharmacology, 2022).
